Data on eleven molecules can be found in patent publication US8329683B2 (Nexgenix Pharmaceuticals, LLC, priority 2006, dated 2012).

For orientation: IC50 means the point on the concentration scale where inhibition reaches its midpoint.

For data set [1] the following is noted: toluene.
For data set [2] the following is noted: rcm bond, 14-membered ring, Grubbs II (10 mol%), toluene, 2.0 mM, 80.0 °C.
Data set [3] relates to HSP70. The data set can be described thus: Western blot of HSP70 in NF2-deficient cells. Type of data set: cell-based, mouse and human. The note with it: dose-dependent. An excerpt: (§1) It has been shown that inhibition of HSP90 function in breast cancer cells causes down-regulation of Akt (Basso et al., 2002, J. Biol. Chem. 277(42): 39858-39866). The inventors of the present invention have determined that phospho-Akt levels are elevated in Nf1−/− mouse Schwann cells, NF2 defient human schwannomas, NF2-deficient meningioma xenografts, NF2-deficient mesothelioma xenografts as compared to wild-type mouse Schwann cells and/or normal human peripheral nerves (reference is made to PCT/US2007/70366 application entitled “Treatment of Neurofibromatosis with Inhibitors of a Signal Transduction Pathway,” filed on Jun. 4, 2007, which is herein incorporated by reference in its entirety). To assess the effect of HSP90 inhibitors on phospho-Akt in NF2 deficient cells, Western blots were prepared from Nf2−/− mouse Schwann cells as an example. The cells were treated with 0.02 μM, 0.5 μM NXD30001 for 24 hours. As control the same cells were treated with vehicle DMSO for 24 hours. […] The loss of phospho-Akt was both dose- and time-dependent.
To assess the effect of the compounds of the present invention on HSP70 in NF2-deficient cells, Western blots were prepared from various NF2-deficient cells, including […], NF2-deficient schwannoma cells, NF2-deficient meningioma cells, and NF2-deficient mesothelioma cells. […]
(A western blot detects proteins with antibodies after separation by electrophoresis.)

The subject of data set [4] is c-Raf. As to the kind of experiment: Western blot of c-Raf in NF2-deficient cells. The class given is cell-based, mouse and human. The note with it: NF2-deficient cells (Nf2-/- mouse Schwann, meningioma, mesothelioma); dose- and time-dependent. An excerpt: (§2) It has been shown that inhibition of HSP90 function in breast cancer cells causes down-regulation of Akt (Basso et al., 2002, J. Biol. Chem. 277(42): 39858-39866). The inventors of the present invention have determined that phospho-Akt levels are elevated in Nf1−/− mouse Schwann cells, NF2 defient human schwannomas, NF2-deficient meningioma xenografts, NF2-deficient mesothelioma xenografts as compared to wild-type mouse Schwann cells and/or normal human peripheral nerves (reference is made to PCT/US2007/70366 application entitled “Treatment of Neurofibromatosis with Inhibitors of a Signal Transduction Pathway,” filed on Jun. 4, 2007, which is herein incorporated by reference in its entirety). To assess the effect of HSP90 inhibitors on phospho-Akt in NF2 deficient cells, Western blots were prepared from Nf2−/− mouse Schwann cells as an example. The cells were treated with 0.02 μM, 0.5 μM NXD30001 for 24 hours. […]
(§3) To assess the effect of the compounds of the present invention on ErbB2 and c-Raf in NF2-deficient cells, Western blots were prepared from various NF2-deficient cells, including Nf2−/− mouse Schwann cells, NF2-deficient meningioma cells, and NF2-deficient mesothelioma cells. […] The inventors of the present invention have determined that treatment of NF2-deficient cells with NXD30001 caused a decline of both ErbB2 and c-Raf levels (FIG. 1A). […]

In data set [5] the test system is c-Raf. As to the kind of experiment: Immunoblot of client protein degradation in ST88-14 MPNST cells. Type of data set: cell-based, human. The note with it: ST88-14 cells, 24 hr treatment, 8-1000 nM; read-out: IC50 of induced degradation of c-Raf. The procedure:
(§4) Ras-Raf-Mek-Erk1/2 pathway is activated due to the loss of NF1 in these cells. In addition, EGFR is overexpressed in a number of NF1-deficient human and mouse cells. Human malignant peripheral nerve sheath tumor (MPNST) cell ST88-14 was treated with increasing concentration (8-1000 nM) of NXD30001 for 24 hr. Cells were lysed and clarified lysates were subjected SDS-PAGE, followed by immunoblot analysis using indicated antibodies. […] Equal lysate protein loading is shown by actin immunoblot.

The subject of data set [6] is Akt. The description is as above. The class given is cell-based, human. The following applies: ST88-14 cells, 24 hr treatment, 8-1000 nM; read-out: IC50 of induced degradation of Akt. The procedure:
as §4

Data set [7] deals with EGFR. The description is as above. Type of data set: cell-based, human. The note with it: ST88-14 cells, 24 hr treatment, 8-1000 nM; read-out: IC50 of induced degradation of EGFR. The procedure:
as §4

The test system of data set [8] is Cdk4. Described as above. Type of data set: cell-based, human. The following applies: ST88-14 cells, 24 hr treatment, 8-1000 nM; read-out: IC50 of induced degradation of Cdk4. The procedure:
as §4

Data set [9] relates to phospho-Akt. As to the kind of experiment: Western blot of phospho-Akt in Nf2-/- mouse Schwann cells. The following applies: 0.02 μM, 0.5 μM, 24 hours, dose- and time-dependent. The class given is cell-based.
Text: as §1

The test system of data set [10] is ErbB2. The data set can be described thus: Western blot of ErbB2 in NF2-deficient cells. Type of data set: cell-based, mouse and human. The note with it: NF2-deficient cells (Nf2-/- mouse Schwann, meningioma, mesothelioma); dose- and time-dependent.
Text: as §2, §3

Data set [11] concerns NF1- and NF2-deficient human and mouse cells. As to the kind of experiment: Cell proliferation assay (ATPlite). The class given is cell-based. The note with it: 3 days culture; IC50 values only in FIG. 3. The procedure: Inhibitors of HSP90 function is assayed for the ability to decrease the number of NF2 deficient tumor cells in a tumor, i.e., shrink a tumor, or reduce the proliferation of NF2 deficient tumor cells. The ability of inhibitors to decrease the number of NF2 deficient tumor cells in a sample or reduce proliferation of NF2 deficient tumor cells is assessed using a variety of methods known in the art. A small library of compounds of the present invention (total 14 oxime compounds) were assayed for inhibition of proliferation of NF1- and NF2-deficient cells. Cells used are Nf2−/− mouse embryonic stem cell (MESC), NF2-deficient human SF1335 meningioma cells, NF2-deficient HEI193 schwanoma cells, NF2-deficient BAR and RAV mesothelioma cells, NF2-plus BLA mesothelioma cells, and NF1-deficient human malignant peripheral nerve sheath tumor (MPNST) cells. Appropriate number of cells that can reach ˜70% confluence in 3 days (2000-6000 cells/well) were plated in 96-well plates. Various concentrations of each compound were added to the growing media and the cells were then cultured for 3 days. A positive control compound (17-AAG) and a vehicle (DMSO) control were included with each assay. […] Viable cells were measured by detecting luminescence generated from reaction of ATPlite solution and the ATP in the cells.
(Cellular ATP, detected with luciferase, serves as a proxy for viable cell number.)

Data set [12] relates to HSP90. The data set can be described thus: HSP90 affinity in a competition assay with geldanamycin. The class given is binding.
For data set [13] the following is noted: cited from earlier work.

Like-named read-outs stand apart in the source and are kept apart here.

With `CCOCOc1cc(OCOCC)c2c(c1Cl)CC(=NOCC(=O)N1CCCCC1)C=CCCC=CCCOC2=O`, in data set [1] (from CCOCOc1cc(OCOCC)c(C(=O)O)c(CC(C=CCCC=CCCO)=NOCC(=O)N2CCCCC2)c1Cl, ester bond, PPh3/DIAD, 30.9 mM, 23.0 °C, 5.0 h), the ring closure, yield of all isomers was determined as 60%.

The molecule `CCOCOc1cc(OCOCC)c2c(c1Cl)CC(=O)C=CCCC=CCC(C)OC2=O` (stereo not shown) had a ring closure, isolated yield in data set [2] of 94%.

With `CCOCOc1cc(OCOCC)c2c(c1Cl)CC(=O)C=CCCC=CC[C@@H](C)OC2=O`, the ring closure, yield of all isomers in data set [1] (from C=CCCC=CC(=O)Cc1c(Cl)c(OCOCC)cc(OCOCC)c1C(=O)O[C@H](C)CC=C, rcm bond, Grubbs II, 2.0 mM, 80.0 °C) is 94%.

`CCOCOc1cc2c(c(OCOCC)c1)C(=O)OC(C)CC=CCCC=CC(=O)C2` (stereo not shown) displayed a ring closure, isolated yield in [2] (2 steps) of 40%.

As to `CCOCOc1cc2c(c(OCOCC)c1)C(=O)O[C@H](C)CC=CCCC=CC(=O)C2`, in data set [1] (from C=CCCC=CC(=O)Cc1cc(OCOCC)cc(OCOCC)c1C(=O)O[C@H](C)CC=C, rcm bond, Grubbs II, 2.0 mM, 80.0 °C, 2 steps), the ring closure, yield of all isomers came out at 40%.

As for `C[C@@H]1CC=CCC/C=C/C(=O)Cc2c(Cl)c(OCOCC[Si](C)(C)C)cc(OCOCC[Si](C)(C)C)c2C(=O)O1`, the ring closure, yield of all isomers in data set [1] (from C=CCC/C=C/C(=O)Cc1c(Cl)c(OCOCC[Si](C)(C)C)cc(OCOCC[Si](C)(C)C)c1C(=O)O[C@H](C)CC=C, rcm bond, Grubbs II, 2.0 mM, 80.0 °C, 12.0 h) was determined as 87%.

`C[C@@H]1CC=CCC/C=C/C(=O)Cc2c(Cl)c(O[Si](C)(C)C(C)(C)C)cc(O[Si](C)(C)C(C)(C)C)c2C(=O)O1`: in data set [1] (from C=CCC/C=C/C(=O)Cc1c(Cl)c(O[Si](C)(C)C(C)(C)C)cc(O[Si](C)(C)C(C)(C)C)c1C(=O)O[C@H](C)CC=C, rcm bond, Grubbs II, 2.0 mM, 80.0 °C, 12.0 h), the ring closure, yield of all isomers is 87%.

`O=C1OCC/C=C/CC/C=C/C(=N/OCC(=O)N2CCCCC2)Cc2c(Cl)c(O)cc(O)c21` [NXD30001]: the HSP70 protein level result in data set [3] is reported as “upregulation of HSP70”. Moreover, in data set [4], the c-Raf levels entry is “decline”. The concentration for half-maximal inhibition (IC50) in [5], in data set [6], in data set [7] and in [8] was ~100 nM each time. Besides, the phospho-Akt levels result in [9] was “decline of phospho-Akt levels”. The ErbB2 levels entry in data set [10] is given as “decline”. Further, the “inhibition of cell proliferation” value in data set [11] is recorded as “Inhibit Proliferation”.

Take `C[C@@H]1CC2O[C@@H]2CC/C=C/C(=O)Cc2c(Cl)c(O)cc(O)c2C(=O)O1` (stereo partly shown) [pochonin A]: the 50% inhibitory concentration (IC50) in data set [12] was 90 nM.

As to `C[C@@H]1C/C=C/CC/C=C/C(=O)Cc2c(Cl)c(O)cc(O)c2C(=O)O1` [pochonin D], the half-maximal inhibitory concentration (IC50) in data set [12] was determined as 80 nM.

As for `C[C@@H]1C[C@H]2O[C@@H]2/C=C\C=C\C(=O)Cc2c(Cl)c(O)cc(O)c2C(=O)O1` [radicicol, Radicicol, reference compound], in [13], the “in vivo anti-tumor activity” value is reported as “no in vivo anti-tumor activity”.
